Literature values as cited in patent US20240350678A1, “SYSTEMS AND METHODS FOR GENERATION OF HYPERPOLARIZED MATERIALS” (NVISION IMAGING TECHNOLOGIES GMBH, priority 2021, published 2024).
Like-named read-outs stand apart in the source and are kept apart here.

maximal mole fraction of acetic acid in n-heptane (at 14.8° C.): 0.935
maximal mole fraction of acetic acid in n-heptane (at −29.2° C.): 0.02
Compound: CC(=O)O [acetic acid]
